We go through 15 compounds from US8877707B2, “Inhibitors of HCV NS5A” (Presidio Pharmaceuticals, Inc., priority 2010, dated 2014).

SMILES strings stand for the structures.

In this assay the test system is HCV genotype 1b replicon in Huh 7 cells. The experiment in a line: HCV replicon assay (1b_Huh-Luc/Neo-ET cell line, luciferase readout). The assay is classed as cell-based. The following applies: Hepatitis C virus, Huh-7; HCV 1b replicon; read-out: Inhibition of HCV genotype 1b. A digest of the protocol:
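Huh 7 cells carrying a bicistronic genotype 1b luciferase replicon were treated with compound in triplicate the day after plating and incubated 72 h. Luciferase activity expressed as % of untreated control; EC50 from a four-parameter logistic fit, repeated several times.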
(Replicon systems follow genome replication, usually without infectious particles.)
On to `COC[C@H](NC(=O)OC)C(=O)N1CCC[C@H]1c1ncc(-c2ccc3cc(-c4ccc(-c5cnc([C@@H]6CCCN6C(=O)[C@H](NC(=O)OC)c6ccsc6)[nH]5)cc4)ccc3c2)[nH]1` [compound 465], for which the EC50 was below 1 nM.
The value for `COC(=O)N[C@H](C(=O)N1CCC[C@H]1c1ncc(-c2ccc3cc(-c4ccc(-c5cnc([C@@H]6CCCN6C(=O)[C@H](NC(=O)OC)c6ccsc6)[nH]5)cc4)ccc3c2)[nH]1)C(C)C` [compound 466] was below 1 nM.
The value for `COC(=O)N[C@@H](CC(C)C)C(=O)N1CCC[C@H]1c1ncc(-c2ccc3nc(-c4ccc(-c5cnc([C@@H]6CCCN6C(=O)[C@H](NC(=O)OC)c6ccccc6)[nH]5)c(F)c4)ccc3c2)[nH]1` [compound 467] was below 1 nM.
Take `COC(=O)N[C@H](C(=O)N1CCC[C@H]1c1ncc(-c2ccc3nc(-c4ccc(-c5cnc([C@@H]6CCCN6C(=O)[C@H](NC(=O)OC)c6ccccc6)[nH]5)c(F)c4)ccc3c2)[nH]1)C1CCCC1` [compound 468]: the EC50 is below 1 nM.
Consider `COC(=O)N[C@H](C(=O)N1CCC[C@H]1c1ncc(-c2ccc3nc(-c4ccc(-c5cnc([C@@H]6CN(C(=O)OC)CCN6C(=O)[C@@H](NC(=O)OC)C(C)C)[nH]5)cc4)ccc3c2)[nH]1)C(C)C` [compound 469], for which the EC50 was below 1 nM.
The value for `COC(=O)N[C@H](C(=O)N1CCN(C(=O)OC)C[C@H]1c1ncc(-c2ccc(-c3ccc4cc(-c5cnc([C@@H]6CCCN6C(=O)[C@@H](NC(=O)OC)C6CCOCC6)[nH]5)ccc4n3)cc2)[nH]1)C(C)C` [compound 470] was below 1 nM; that for `COC(=O)N[C@H](C(=O)N1CCN(C(=O)OC)C[C@H]1c1ncc(-c2ccc(-c3ccc4cc(-c5cnc([C@@H]6CCCN6C(=O)[C@H](NC(=O)OC)c6ccccc6)[nH]5)ccc4n3)cc2)[nH]1)C(C)C` [compound 471] was below 1 nM.
For `COC(=O)N[C@H](C(=O)N1CCN(C(=O)OC)C[C@H]1c1ncc(-c2ccc(-c3ccc4cc(-c5cnc([C@@H]6CCCN6C(=O)[C@H](NC(=O)OC6CCOCC6)c6ccccc6)[nH]5)ccc4n3)cc2)[nH]1)C(C)C` [compound 472], the EC50 was below 1 nM.
The value for `COC(=O)N[C@H](C(=O)N1CCC[C@H]1c1ncc(-c2ccc3nc(-c4ccc(-c5cnc([C@@H]6CCCN6C(=O)[C@H](NC(=O)OC)c6ccccc6)[nH]5)c(F)c4)ccc3c2)[nH]1)C1CCOCC1` [compound 473] was below 1 nM.
Consider `COC(=O)N[C@@H](C(=O)N1CCC[C@H]1c1ncc(-c2ccc(-c3ccc4cc(-c5cnc([C@@H]6CCCN6C(=O)[C@H](NC(=O)OC6CCOCC6)c6ccccc6)[nH]5)ccc4n3)cc2F)[nH]1)c1ccccc1` [compound 474], for which the EC50 was below 1 nM.
The value for `COC(=O)N[C@H](C(=O)N1CCC[C@H]1c1ncc(-c2ccc(-c3ccc4cc(-c5cnc([C@@H]6CCCN6C(=O)[C@@H](NC(=O)OC)[C@@H](C)OC)[nH]5)ccc4n3)cc2F)[nH]1)C(C)C` [compound 475] was below 1 nM; that for `COC(=O)N[C@H](C(=O)N1CCC[C@H]1c1ncc(-c2cnc(-c3ccc4cc(-c5cnc([C@@H]6CCCN6C(=O)[C@@H](NC(=O)OC)C(C)C)[nH]5)ccc4c3)nc2)[nH]1)C(C)C` [compound 476] was below 1 nM.
The value for `COC[C@H](NC(=O)OC)C(=O)N1CCC[C@H]1c1ncc(-c2ccc3cc(-c4ccc(-c5cnc([C@@H]6CCCN6C(=O)[C@H](NC(=O)OC)c6ccccc6)[nH]5)nn4)ccc3c2)[nH]1` [compound 477] was below 1 nM; that for `COC(=O)N[C@H](C(=O)N1CCC[C@H]1c1ncc(-c2ccc3cc(-c4ccc(-c5cnc([C@@H]6CCCN6C(=O)[C@H](NC(=O)OC)c6ccsc6)[nH]5)cc4)ccc3c2)[nH]1)[C@@H](C)O` [compound 478] was below 1 nM; that for `COC(=O)N[C@H](C(=O)N1CCC[C@H]1c1ncc(-c2ccc(-c3ccc4cc(-c5cnc([C@@H]6CCCN6C(=O)[C@@H](NC(=O)OC)[C@@H](C)OC)[nH]5)ccc4c3)nc2)[nH]1)C(C)C` [compound 479] was below 1 nM.
